Series [1] has as its system Ebolavirus. Description: Antiviral activity against Ebolavirus infected in African green monkey Vero cells. The series is classed as functional, cell-based. As to conditions: Orthoebolavirus.
Series [2] can be described thus: Cytotoxicity against African green monkey Vero cells assessed as reduction in cell viability. Conditions: chlorocebus sabaeus. The series is classed as cell-based.
A short description of series [3]: Selectivity index, ratio of CC50 for African green monkey Vero cells to EC50 for Ebolavirus. The series is classed as toxicity. Conditions: read-out: Ratio CC50/EC50.
The subject of the next series is Measles morbillivirus. Description: Antiviral activity against Measles virus infected in African green monkey Vero 76 cells. The class given is functional, organism-based.
The nature of series [4]: Cytotoxicity against African green monkey Vero 76 cells assessed as reduction in cell viability. The series is classed as cell-based. Conditions: chlorocebus sabaeus.
The nature of series [5]: Selectivity index, ratio of CC50 for African green monkey Vero 76 cells to EC50 for measles virus. As to conditions: read-out: Ratio CC50/EC50. The class given is toxicity.
The next series relates to Influenza A virus. Description: Antiviral activity against Influenza A virus (H1N1) infected in MDCK cells. The series is classed as functional, organism-based.
Series [6] in a line: Cytotoxicity against MDCK cells assessed as reduction in cell viability. The class given is cell-based, Canis lupus familiaris. As to conditions: dog.
The nature of series [7]: Selectivity index, ratio of CC50 for MDCK cells to EC50 for Influenza A virus (H1N1). The series is classed as toxicity. As to conditions: dog, read-out: Ratio CC50/EC50.
The next series deals with Pichinde virus. Description: Antiviral activity against Pichinde virus infected in African green monkey Vero. The class given is functional, organism-based.
Series [8] can be described thus: Selectivity index, ratio of CC50 for African green monkey Vero cells to EC50 for Pichinde virus. Conditions: read-out: Ratio CC50/EC50. The series is classed as toxicity.
The target of series [9] is AdoHcyase_NAD domain-containing protein (Oryctolagus cuniculus, UniProt G1SVH0). Nature of the series: Inhibition of SAHase from rabbit erythrocytes using S-adenosyl-L-homocysteine as substrate preincubated for 5 mins followed by substrate addition and measured after 1 hr by Measure-iTTM thiol quantitation reagent based assay.
Sequence of AdoHcyase_NAD domain-containing protein (G1SVH0 whole entry, the tested form may be a part): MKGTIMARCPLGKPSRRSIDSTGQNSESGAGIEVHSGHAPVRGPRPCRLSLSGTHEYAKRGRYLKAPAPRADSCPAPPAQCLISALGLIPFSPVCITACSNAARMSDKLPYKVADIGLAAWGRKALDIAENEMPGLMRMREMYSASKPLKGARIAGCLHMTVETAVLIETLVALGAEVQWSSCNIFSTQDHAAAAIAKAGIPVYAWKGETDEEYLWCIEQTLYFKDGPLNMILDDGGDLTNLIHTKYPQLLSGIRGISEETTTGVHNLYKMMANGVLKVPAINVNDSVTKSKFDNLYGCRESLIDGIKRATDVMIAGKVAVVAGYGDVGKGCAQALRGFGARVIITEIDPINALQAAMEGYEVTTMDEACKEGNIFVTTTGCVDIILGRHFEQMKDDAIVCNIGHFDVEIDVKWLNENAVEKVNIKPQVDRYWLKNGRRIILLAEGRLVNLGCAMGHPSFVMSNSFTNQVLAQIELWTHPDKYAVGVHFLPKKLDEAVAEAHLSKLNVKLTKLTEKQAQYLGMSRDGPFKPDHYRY
A further series concerns Chikungunya virus. Description: Antiviral activity against Chikungunya virus infected in African green monkey Vero 76 cells. The class given is functional, organism-based.
Another series deals with dengue virus type 2. Nature of the series: Antiviral activity against Dengue virus 2 infected in African green monkey Vero 76 cells. The series is classed as functional, organism-based.
The next series relates to Poliovirus 1. Description: Antiviral activity against Human poliovirus 1 infected in African green monkey Vero 76 cells. The series is classed as functional, organism-based.
The test system of a further series is Punta Toro virus. Nature of the series: Antiviral activity against Punta Toro virus infected in African green monkey Vero 76 cells. The class given is functional, organism-based.
A further series has as its system Rift Valley fever virus. Description: Antiviral activity against Rift Valley fever virus infected in African green monkey Vero 76 cells. The series is classed as functional, organism-based.
The test system of a further series is Tacaribe virus. Nature of the series: Antiviral activity against Tacaribe virus infected in African green monkey Vero cells. As to conditions: Mammarenavirus tacaribeense. The class given is functional, organism-based.
In series [10] the test system is Venezuelan equine encephalitis virus. Description: Antiviral activity against Venezuelan equine encephalitis virus infected in African green monkey Vero 76 cells. The class given is functional, organism-based.
The next series deals with West Nile virus. Nature of the series: Antiviral activity against West Nile virus infected in African green monkey Vero 76 cells. The series is classed as functional, organism-based.
Another series relates to Yellow fever virus. Nature of the series: Antiviral activity against Yellow fever virus infected in African green monkey Vero cells. The class given is functional, organism-based.
The test system of another series is Norovirus. Nature of the series: Antiviral activity against Norovirus infected in human HG23 cells. The class given is functional, organism-based.
The next series concerns Human betaherpesvirus 5. Description: Antiviral activity against Human cytomegalovirus infected in human HFF cells. The series is classed as functional, organism-based.
A further series deals with Hepatitis B virus. Description: Antiviral activity against Hepatitis B virus infected in human HepG2.2.15 cells. The class given is functional, organism-based.
Another series relates to Human adenovirus 5. Description: Antiviral activity against Human adenovirus 5 infected in human A549 cells. The class given is functional, organism-based.
The next series relates to Usutu virus. Description: Antiviral activity against Usutu virus infected in African green monkey Vero 76 cells. The series is classed as functional, organism-based.
In series [11] the test system is Japanese encephalitis virus. Description: Antiviral activity against Japanese […] encephalitis virus infected in African green monkey Vero 76 cells. The class given is functional, organism-based.
Series [12] deals with Ebolavirus. Description: Antiviral activity against Ebolavirus subtype Zaire infected in African green monkey Vero E6 cells. The class given is functional, Ebola virus - Zaire (1995). As to conditions: Orthoebolavirus, Vero C1008.
The nature of series [13]: Cytotoxicity against African green monkey Vero E6 cells assessed as reduction in cell viability. The class given is cell-based. Conditions: chlorocebus sabaeus, Vero E6 cells (Vero C1008).
Series [14] can be described thus: Selectivity index, ratio of CC50 for African green monkey Vero E6 cells to EC50 for Ebolavirus subtype Zaire. The series is classed as toxicity, Vero C1008. Conditions: read-out: Ratio CC50/EC50.

The structures appear in SMILES notation. pEC50, pIC50: −log10 of the molar value. Active and inactive are the calls of the source. The calls are words filed in the database; no cut-off is given here.

By pEC50 is commonly meant the negative decadic logarithm of the EC50, by convention in mol/L. Usually CC50 stands for the concentration that lowers cell viability or growth by half. The term pIC50 denotes the negative decadic logarithm of the IC50, by convention in mol/L. In the case of `Nc1cccc2c1ncn2[C@@H]1C(F)=C(CO)[C@@H](O)[C@H]1O`, the pEC50 in the series on Ebolavirus [1] is above 6.44; in the series with Measles morbillivirus, above 6.44; with Influenza A virus, 4.69; in the series with Pichinde virus, 4.24. Besides, the CC50 in series [2] was 125 to 360 µM; in series [4], 115 µM; in series [6] it was 133 µM. Also, the selectivity ratio in [3] was above 347; in series [5] it was above 320; in [7] it was 6.6; in [8], above 6.3. The negative-log IC50 (pIC50) in series [9] was 8.06. Further, the result with Chikungunya virus, with dengue virus type 2, in the series with Poliovirus 1, in the series with Punta Toro virus, in the series with Rift Valley fever virus and in the series on Tacaribe virus was inactive. Besides, the result (in series [10]; in the series on West Nile virus; with Yellow fever virus; in the series on Norovirus; in the series with Human betaherpesvirus 5; in the series on Hepatitis B virus) was inactive. In addition, the outcome (with Human adenovirus 5; in the series on Usutu virus; in series [11]) was inactive.
In the case of `Nc1cccc2c1ncn2[C@@H]1C=C(CO)[C@@H](O)[C@H]1O`, in the series on Ebolavirus [12], the pEC50 was 5.70. Further, in series [13], the half-maximal cytotoxic concentration (CC50) is above 1700 µM. Besides, the selectivity ratio in [14] was above 850.
The corresponding values for `Nc1ccnc2c1ncn2[C@@H]1C=C(CO)[C@@H](O)[C@H]1O` are 5.40, 60 µM and 15.

The values above are taken from ChEMBL document CHEMBL4257578, “6'-Fluoro-3-deazaneplanocin: Synthesis and antiviral properties, including Ebola” (Bioorg Med Chem Lett, 2018).
